Source: PubChem BioAssay AID1963960 (Molecular Pharmacology Branch, DTP, NCI, 2024)

Test system: MDA-MB-468 spheroids with HUVEC/MSC, viability
Assay: Anticancer human tumor MDA-MB-468 cell line growth inhibition [PI3K];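 note: spheroids exposed to agents for seven days before readout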;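 for viability, T/C: 100% = DMSO vehicle control viability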
Conditions: for IC50: curve of first compound; for viability, T/C: stronger effect = lower value
Outline: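 Tumor cells were combined with HUVEC and MSCs into spheroids, then dosed with PI3K-inhibitor combinations over half-log ranges capped near clinical Cmax or 10 microM.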

[1] = second compound 0.00316 µM, first compound 0.0316 µM
[2] = second compound 0.00316 µM, first compound 0.1 µM
[3] = second compound 0.00316 µM, first compound 0.316 µM
[4] = second compound 0.00316 µM, first compound 1 µM
[5] = second compound 0.00316 µM, first compound 3.16 µM
[6] = second compound 0.00316 µM, first compound 10 µM
[7] = second compound 0.01 µM, first compound 0.0316 µM
[8] = second compound 0.01 µM, first compound 0.1 µM
[9] = second compound 0.01 µM, first compound 0.316 µM
[10] = second compound 0.01 µM, first compound 1 µM
[11] = second compound 0.01 µM, first compound 3.16 µM
[12] = second compound 0.01 µM, first compound 10 µM
[13] = second compound 0.0316 µM, first compound 0.0316 µM
[14] = second compound 0.0316 µM, first compound 0.1 µM
[15] = second compound 0.0316 µM, first compound 0.316 µM
[16] = second compound 0.0316 µM, first compound 1 µM
[17] = second compound 0.0316 µM, first compound 3.16 µM
[18] = second compound 0.0316 µM, first compound 10 µM
[19] = second compound 0.1 µM, first compound 0.0316 µM
[20] = second compound 0.1 µM, first compound 0.1 µM
[21] = second compound 0.1 µM, first compound 0.316 µM
[22] = second compound 0.1 µM, first compound 1 µM
[23] = second compound 0.1 µM, first compound 3.16 µM
[24] = second compound 0.1 µM, first compound 10 µM
[25] = second compound 0.316 µM, first compound 0.0316 µM
[26] = second compound 0.316 µM, first compound 0.1 µM
[27] = second compound 0.316 µM, first compound 0.316 µM
[28] = second compound 0.316 µM, first compound 1 µM
[29] = second compound 0.316 µM, first compound 3.16 µM
[30] = second compound 0.316 µM, first compound 10 µM
[31] = second compound 1 µM, first compound 0.0316 µM
[32] = second compound 1 µM, first compound 0.1 µM
[33] = second compound 1 µM, first compound 0.316 µM
[34] = second compound 1 µM, first compound 1 µM
[35] = second compound 1 µM, first compound 3.16 µM
[36] = second compound 1 µM, first compound 10 µM

C#Cc1c(F)ccc2cc(O)cc(-c3ncc4c(N5CC6CCC(C5)N6)nc(OCC56CCCN5CC(F)C6)nc4c3F)c12 (stereo not given) + CC(Nc1ccc2c(c1)OCCn1cc(N3C(=O)OCC3C(F)F)nc1-2)C(N)=O
IC50 (second compound 0.00316 µM): > 10 µM
IC50 (second compound 0.01 µM): > 10 µM
IC50 (second compound 0.0316 µM): 8.92 µM
IC50 (second compound 0.1 µM): 8 µM
IC50 (second compound 0.316 µM): 5.19 µM
IC50 (second compound 1 µM): 4.48 µM
viability, T/C [1]: 94.9%
viability, T/C [2]: 91%
viability, T/C [3]: 86%
viability, T/C [4]: 91.5%
viability, T/C [5]: 88.2%
viability, T/C [6]: 53.4%
viability, T/C [7]: 95.7%
viability, T/C [8]: 103%
viability, T/C [9]: 83.3%
viability, T/C [10]: 82%
viability, T/C [11]: 89.2%
viability, T/C [12]: 55.1%
viability, T/C [13]: 91.4%
viability, T/C [14]: 84.9%
viability, T/C [15]: 88.3%
viability, T/C [16]: 81.2%
viability, T/C [17]: 81.9%
viability, T/C [18]: 46.5%
viability, T/C [19]: 84%
viability, T/C [20]: 76.7%
viability, T/C [21]: 72.1%
viability, T/C [22]: 75.5%
viability, T/C [23]: 73.9%
viability, T/C [24]: 44.4%
viability, T/C [25]: 93.1%
viability, T/C [26]: 72%
viability, T/C [27]: 81.1%
viability, T/C [28]: 64.5%
viability, T/C [29]: 65.7%
viability, T/C [30]: 36.4%
viability, T/C [31]: 89.1%
viability, T/C [32]: 75.4%
viability, T/C [33]: 82.1%
viability, T/C [34]: 70.3%
viability, T/C [35]: 59.2%
viability, T/C [36]: 31.3%

C=CC(=O)N1CCN(c2nc(=O)n(-c3c(C)ccnc3C(C)C)c3nc(-c4c(O)cccc4F)c(F)cc23)C(C)C1 (stereo not given) + CC(Nc1ccc2c(c1)OCCn1cc(N3C(=O)OCC3C(F)F)nc1-2)C(N)=O
IC50 (second compound 0.00316 µM): > 10 µM
IC50 (second compound 0.01 µM): > 10 µM
IC50 (second compound 0.0316 µM): > 10 µM
IC50 (second compound 0.1 µM): > 10 µM
IC50 (second compound 0.316 µM): > 10 µM
IC50 (second compound 1 µM): 7.86 µM
viability, T/C [1]: 85.4%
viability, T/C [2]: 92.4%
viability, T/C [3]: 98.7%
viability, T/C [4]: 107%
viability, T/C [5]: 98.3%
viability, T/C [6]: 82.5%
viability, T/C [7]: 91.3%
viability, T/C [8]: 101%
viability, T/C [9]: 82.3%
viability, T/C [10]: 101%
viability, T/C [11]: 97.3%
viability, T/C [12]: 73%
viability, T/C [13]: 92.5%
viability, T/C [14]: 95.3%
viability, T/C [15]: 87.1%
viability, T/C [16]: 86.8%
viability, T/C [17]: 96.4%
viability, T/C [18]: 66.1%
viability, T/C [19]: 104%
viability, T/C [20]: 82.5%
viability, T/C [21]: 87.4%
viability, T/C [22]: 102%
viability, T/C [23]: 86%
viability, T/C [24]: 59.6%
viability, T/C [25]: 84.5%
viability, T/C [26]: 66.2%
viability, T/C [27]: 76.4%
viability, T/C [28]: 91.4%
viability, T/C [29]: 93.6%
viability, T/C [30]: 55.9%
viability, T/C [31]: 82.6%
viability, T/C [32]: 93.9%
viability, T/C [33]: 77.8%
viability, T/C [34]: 84.7%
viability, T/C [35]: 64%
viability, T/C [36]: 46.3%

CC(Cn1ccc(-c2ccc(C#N)c(Cl)c2)n1)NC(=O)c1cc(C(C)O)[nH]n1 (stereo not given) + CC(Nc1ccc2c(c1)OCCn1cc(N3C(=O)OCC3C(F)F)nc1-2)C(N)=O
IC50 (second compound 0.00316 µM): > 10 µM
IC50 (second compound 0.01 µM): > 10 µM
IC50 (second compound 0.0316 µM): > 10 µM
IC50 (second compound 0.1 µM): > 10 µM
IC50 (second compound 0.316 µM): > 10 µM
IC50 (second compound 1 µM): > 10 µM
viability, T/C [1]: 104%
viability, T/C [2]: 84.3%
viability, T/C [3]: 107%
viability, T/C [4]: 99.4%
viability, T/C [5]: 101%
viability, T/C [6]: 88.6%
viability, T/C [7]: 102%
viability, T/C [8]: 93.8%
viability, T/C [9]: 79.3%
viability, T/C [10]: 90%
viability, T/C [11]: 94.6%
viability, T/C [12]: 77.8%
viability, T/C [13]: 101%
viability, T/C [14]: 79.7%
viability, T/C [15]: 92.5%
viability, T/C [16]: 90%
viability, T/C [17]: 88.4%
viability, T/C [18]: 72.1%
viability, T/C [19]: 114%
viability, T/C [20]: 82.2%
viability, T/C [21]: 80.4%
viability, T/C [22]: 102%
viability, T/C [23]: 94.8%
viability, T/C [24]: 65%
viability, T/C [25]: 88.5%
viability, T/C [26]: 77.7%
viability, T/C [27]: 96.1%
viability, T/C [28]: 85.1%
viability, T/C [29]: 69.9%
viability, T/C [30]: 64.5%
viability, T/C [31]: 93%
viability, T/C [32]: 72.7%
viability, T/C [33]: 89%
viability, T/C [34]: 78.8%
viability, T/C [35]: 66.5%
viability, T/C [36]: 68%

CC1(C)CCC(Nc2ncc(C(F)(F)F)c(-c3c[nH]c4c(P(C)(C)=O)c(C#N)ccc34)n2)CN1 (stereo not given) + CC(Nc1ccc2c(c1)OCCn1cc(N3C(=O)OCC3C(F)F)nc1-2)C(N)=O
IC50 (second compound 0.00316 µM): < 0.0316 µM
IC50 (second compound 0.01 µM): < 0.0316 µM
IC50 (second compound 0.0316 µM): < 0.0316 µM
IC50 (second compound 0.1 µM): < 0.0316 µM
IC50 (second compound 0.316 µM): < 0.0316 µM
IC50 (second compound 1 µM): < 0.0316 µM
viability, T/C [1]: 9.78%
viability, T/C [2]: 9.47%
viability, T/C [3]: 9.65%
viability, T/C [4]: 8.55%
viability, T/C [5]: 8.68%
viability, T/C [6]: 1.56%
viability, T/C [7]: 10.6%
viability, T/C [8]: 11.4%
viability, T/C [9]: 9.42%
viability, T/C [10]: 8.7%
viability, T/C [11]: 7.16%
viability, T/C [12]: 2.11%
viability, T/C [13]: 11.1%
viability, T/C [14]: 9.59%
viability, T/C [15]: 7.86%
viability, T/C [16]: 8.01%
viability, T/C [17]: 7.19%
viability, T/C [18]: 1.24%
viability, T/C [19]: 11.6%
viability, T/C [20]: 10%
viability, T/C [21]: 9.28%
viability, T/C [22]: 8.9%
viability, T/C [23]: 7.73%
viability, T/C [24]: 1.12%
viability, T/C [25]: 11.5%
viability, T/C [26]: 9.36%
viability, T/C [27]: 8.28%
viability, T/C [28]: 8.77%
viability, T/C [29]: 6.8%
viability, T/C [30]: 1.12%
viability, T/C [31]: 11.7%
viability, T/C [32]: 9%
viability, T/C [33]: 8.85%
viability, T/C [34]: 10.9%
viability, T/C [35]: 5.99%
viability, T/C [36]: 1.09%

Cn1nccc1Nc1nccc(-c2ccn(C(CO)c3ccc(Cl)c(F)c3)c(=O)c2)n1 (stereo not given) + CC(Nc1ccc2c(c1)OCCn1cc(N3C(=O)OCC3C(F)F)nc1-2)C(N)=O
IC50 (second compound 0.00316 µM): > 10 µM
IC50 (second compound 0.01 µM): > 10 µM
IC50 (second compound 0.0316 µM): > 10 µM
IC50 (second compound 0.1 µM): > 10 µM
IC50 (second compound 0.316 µM): > 10 µM
IC50 (second compound 1 µM): > 10 µM
viability, T/C [1]: 85.3%
viability, T/C [2]: 96.8%
viability, T/C [3]: 87.2%
viability, T/C [4]: 90.4%
viability, T/C [5]: 96.1%
viability, T/C [6]: 87.9%
viability, T/C [7]: 97%
viability, T/C [8]: 89.1%
viability, T/C [9]: 87.8%
viability, T/C [10]: 94.9%
viability, T/C [11]: 101%
viability, T/C [12]: 82.6%
viability, T/C [13]: 95.3%
viability, T/C [14]: 86.6%
viability, T/C [15]: 88.6%
viability, T/C [16]: 80.1%
viability, T/C [17]: 108%
viability, T/C [18]: 77.8%
viability, T/C [19]: 88%
viability, T/C [20]: 89.2%
viability, T/C [21]: 77.7%
viability, T/C [22]: 81%
viability, T/C [23]: 87.5%
viability, T/C [24]: 73.1%
viability, T/C [25]: 90%
viability, T/C [26]: 82.5%
viability, T/C [27]: 89.6%
viability, T/C [28]: 87.6%
viability, T/C [29]: 82.7%
viability, T/C [30]: 60.7%
viability, T/C [31]: 85.5%
viability, T/C [32]: 74.3%
viability, T/C [33]: 74.7%
viability, T/C [34]: 74.8%
viability, T/C [35]: 81.2%
viability, T/C [36]: 55.2%
